pIC50: −log10 of the molar value. Active and inactive are the calls of the source. No cut-off for these calls is given here.
Legend:
[1] = test system: MGC-803; experiment: Induction of apoptosis in human MGC803 cells assessed as decrease in Bcl-xL expression at 0.5 to 2.5 uM after 24 hrs by Western blot analysis; assay type: functional, cell-based
[2] = test system: MGC-803; experiment: Cell cycle arrest in human MGC803 cells assessed as change in cyclin E2 expression at 0.5 to 2.5 uM incubated for 24 hrs by immunoblot analysis; assay type: functional, cell-based
[3] = test system: MGC-803; experiment: Induction of apoptosis in human MGC803 cells assessed as necrotic cells at 1 uM incubated for 24 hrs by Annexin V-FITC/propidium iodide staining based flow cytometry (reference value: 1.81 +/- 0.09 %); assay type: functional
[4] = test system: MGC-803; experiment: Induction of apoptosis in human MGC803 cells assessed as formation of apoptotic bodies at 2.5 uM after 24 hrs by Hoechst 33258 staining-based fluorescence microscopic method; assay type: functional, cell-based
[5] = molecular target: T1, DNA topoisomerase I (Bos taurus) (UniProt F1MN93); experiment: Inhibition of calf thymus topoisomerase1-mediated relaxation of supercoiled pBR322 DNA at 5 uM measured after 30 mins by ethidium bromide staining based agarose gel electrophoresis
T1 sequence (whole entry): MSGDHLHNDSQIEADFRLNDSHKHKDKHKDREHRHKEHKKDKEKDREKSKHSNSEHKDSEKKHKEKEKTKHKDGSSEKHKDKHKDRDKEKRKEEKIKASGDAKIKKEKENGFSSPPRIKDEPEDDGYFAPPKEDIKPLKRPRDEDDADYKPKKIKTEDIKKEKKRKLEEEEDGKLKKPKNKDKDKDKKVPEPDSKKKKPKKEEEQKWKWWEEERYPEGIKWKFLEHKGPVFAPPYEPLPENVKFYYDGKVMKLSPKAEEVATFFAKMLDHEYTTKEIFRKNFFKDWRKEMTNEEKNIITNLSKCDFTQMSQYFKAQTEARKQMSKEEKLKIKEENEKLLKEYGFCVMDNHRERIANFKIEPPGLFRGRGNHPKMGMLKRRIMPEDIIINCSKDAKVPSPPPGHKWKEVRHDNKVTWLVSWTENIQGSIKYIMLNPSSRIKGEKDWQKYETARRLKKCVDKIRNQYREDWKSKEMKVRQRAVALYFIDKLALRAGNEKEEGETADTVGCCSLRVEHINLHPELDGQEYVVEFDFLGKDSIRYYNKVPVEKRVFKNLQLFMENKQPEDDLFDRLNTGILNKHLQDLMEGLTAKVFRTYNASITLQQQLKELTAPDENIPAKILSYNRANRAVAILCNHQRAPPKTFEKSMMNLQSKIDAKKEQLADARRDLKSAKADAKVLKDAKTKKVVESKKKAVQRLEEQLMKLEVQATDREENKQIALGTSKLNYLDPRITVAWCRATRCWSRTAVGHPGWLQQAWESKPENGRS

[6] = test system: MGC-803; experiment: Cell cycle arrest in human MGC803 cells assessed as accumulation of cells at G1 phase at 2.5 uM incubated for 48 hrs by propidium iodide staining-based flow cytometry (reference value: 53.96%); assay type: functional
[7] = test system: MGC-803; experiment: Cell cycle arrest in human MGC803 cells assessed as change in cyclin A2 expression at 0.5 to 2.5 uM incubated for 24 hrs by immunoblot analysis; assay type: functional, cell-based
[8] = test system: MGC-803; experiment: Induction of apoptosis in human MGC803 cells assessed as increase in Bax levels at 0.5 to 2.5 uM after 24 hrs by Western blot analysis; assay type: functional, cell-based
[9] = test system: Quadruplex DNA; experiment: Binding affinity to human c-Kit-1 G-quadruplex DNA at 10 uM incubated for 5 mins by CD spectroscopy; assay type: nucleic-acid assay
[10] = test system: MGC-803; experiment: Cell cycle arrest in human MGC803 cells assessed as accumulation of cells at G2/M phase at 0.5 uM incubated for 48 hrs by propidium iodide staining-based flow cytometry (reference value: 13.07%); assay type: functional
[11] = test system: MGC-803; experiment: Cell cycle arrest in human MGC803 cells assessed as accumulation of cells at S phase at 0.5 uM incubated for 48 hrs by propidium iodide staining based flow cytometry (reference value: 32.97%); assay type: functional
[12] = test system: MGC-803; experiment: Induction of apoptosis in human MGC803 cells assessed as late apoptotic cells at 1 uM incubated for 24 hrs by Annexin V-FITC/propidium iodide staining based flow cytometry (reference value: 0.69 +/- 0.05 %); assay type: functional
[13] = test system: MGC-803; experiment: Induction of apoptosis in human MGC803 cells assessed as early apoptotic cells at 2.5 uM incubated for 24 hrs by Annexin V-FITC/propidium iodide staining based flow cytometry (reference value: 0.97 +/- 0.10 %); assay type: functional
[14] = test system: MGC-803; experiment: Induction of apoptosis in human MGC803 cells assessed as early apoptotic cells at 0.5 uM incubated for 24 hrs by Annexin V-FITC/propidium iodide staining based flow cytometry (reference value: 0.97 +/- 0.10 %); assay type: functional
[15] = test system: MGC-803; experiment: Induction of apoptosis in human MGC803 cells assessed as viable cells at 0.5 uM incubated for 24 hrs by Annexin V-FITC/propidium iodide staining based flow cytometry (reference value: 96.53+/-2.11%); assay type: functional; settings: MGC-803, 24 h, read-out: Activity
[16] = test system: MGC-803; experiment: Induction of apoptosis in human MGC803 cells assessed as increase in Bim levels at 0.5 to 2.5 uM after 24 hrs by Western blot analysis; assay type: functional, cell-based
[17] = test system: MGC-803; experiment: Induction of apoptosis in human MGC803 cells assessed as increase in cytochrome-c expression at 0.5 to 2.5 uM after 24 hrs by Western blot analysis; assay type: functional, cell-based
[18] = test system: MGC-803; experiment: Induction of apoptosis in human MGC803 cells assessed as late apoptotic cells at 0.5 uM incubated for 24 hrs by Annexin V-FITC/propidium iodide staining based flow cytometry (reference value: 0.69 +/- 0.05 %); assay type: functional
[19] = test system: MGC-803; experiment: Cell cycle arrest in human MGC803 cells assessed as down regulation of cyclin B1 expression at 0.5 to 2.5 uM incubated for 24 hrs by Western blot analysis; assay type: functional, cell-based
[20] = test system: L02; experiment: Cytotoxicity against human HL7702 cells assessed as reduction in cell viability incubated for 48 hrs by MTT assay; assay type: cell-based; settings: L02, 48 h
[21] = test system: MGC-803; experiment: Induction of apoptosis in human MGC803 cells assessed as decrease in Bcl-2 expression at 0.5 to 2.5 uM after 24 hrs by Western blot analysis; assay type: functional, cell-based
[22] = test system: Quadruplex DNA; experiment: Binding affinity to human Pu27 G-quadruplex DNA at 10 uM incubated for 5 mins by CD spectroscopy; assay type: nucleic-acid assay
[23] = test system: MGC-803; experiment: Antiproliferative activity against human MGC803 cells assessed as reduction in cell viability incubated for 48 hrs by MTT assay; assay type: functional, cell-based; settings: MGC-803, 48 h
[24] = test system: MGC-803; experiment: Induction of apoptosis in human MGC803 cells assessed as appearance of irregular cell shape at 2.5 uM after 24 hrs by Hoechst 33258 staining-based fluorescence microscopic method; assay type: functional
[25] = test system: MGC-803; experiment: Cell cycle arrest in human MGC803 cells assessed as increase in p27 expression at 0.5 to 2.5 uM incubated for 24 hrs by Western blot analysis; assay type: functional, cell-based
[26] = test system: Calf thymus DNA; experiment: Inhibition of ethidium bromide binding to calf thymus DNA assessed as Stern-Volmer quenching constant by fluorescence spectra analysis; assay type: nucleic-acid assay; settings: Bos taurus
[27] = test system: MGC-803; experiment: Induction of apoptosis in human MGC803 cells assessed as necrotic cells at 2.5 uM incubated for 24 hrs by Annexin V-FITC/propidium iodide staining based flow cytometry (reference value: 1.81 +/- 0.09 %); assay type: functional

inhibition [5]: Active
Activity [9]: Active
Activity [22]: Active
pIC50 [23]: 6.01
Kq [26]: 5.92 ×10⁴ No_unit
Structure (SMILES): CN(C)CCCNc1c2c(nc3ccc(F)cc13)-c1ccccc1C2
Activity [1]: Active
Activity [2]: inactive
Activity [3]: 4.69%
Activity [4]: Active
Activity [6]: 8.74%
Activity [7]: inactive
Activity [8]: Active
Activity [10]: 3.76%
Activity [11]: 44.73%
Activity [12]: 15%
Activity [13]: 51.2%
Activity [14]: 13.8%
viability at 0.5 µM [15]: 80.3%
Activity [16]: Active
Activity [17]: Active
Activity [18]: 4.15%
Activity [19]: Active
pIC50 [20]: 5.80
Activity [21]: Active
Activity [24]: Active
Activity [25]: Active
Activity [27]: 4.01%

From ChEMBL document CHEMBL4346660, “Cryptolepine and aromathecin based mimics as potent G-quadruplex-binding, DNA-cleavage and anticancer agents: Design, synthesis and DNA targeting-induced apoptosis” (Eur J Med Chem, 2019)
